Measured values taken from patent US8273890B2 (4SC AG, priority 2007, dated 2012).

Target: T1, recombinant Plk1 protein (Homo sapiens, UniProt P53350)
T1 construct: histidine tag (N); made in house; host or cells: SF9 insect cells
Experiment: Plk1 kinase activity inhibition assay (33P-ATP, alpha casein substrate, flash plates)
Format: biochemical
Conditions: enzymatic assay, 100 nM Li-ATP, 80 minutes at 30° C.
How it was run: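 IC50 derived from radioactive flash-plate counts of 33P-labelled alpha casein after 80 min at 30 °C. Reaction: 100 nM 33P-containing ATP, 50–100 ng His-tagged Plk1 (SF9-expressed), 500 ng casein per well, HEPES pH 7.5 buffer with MgCl2/MnCl2.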

T1 sequence (P53350 whole entry): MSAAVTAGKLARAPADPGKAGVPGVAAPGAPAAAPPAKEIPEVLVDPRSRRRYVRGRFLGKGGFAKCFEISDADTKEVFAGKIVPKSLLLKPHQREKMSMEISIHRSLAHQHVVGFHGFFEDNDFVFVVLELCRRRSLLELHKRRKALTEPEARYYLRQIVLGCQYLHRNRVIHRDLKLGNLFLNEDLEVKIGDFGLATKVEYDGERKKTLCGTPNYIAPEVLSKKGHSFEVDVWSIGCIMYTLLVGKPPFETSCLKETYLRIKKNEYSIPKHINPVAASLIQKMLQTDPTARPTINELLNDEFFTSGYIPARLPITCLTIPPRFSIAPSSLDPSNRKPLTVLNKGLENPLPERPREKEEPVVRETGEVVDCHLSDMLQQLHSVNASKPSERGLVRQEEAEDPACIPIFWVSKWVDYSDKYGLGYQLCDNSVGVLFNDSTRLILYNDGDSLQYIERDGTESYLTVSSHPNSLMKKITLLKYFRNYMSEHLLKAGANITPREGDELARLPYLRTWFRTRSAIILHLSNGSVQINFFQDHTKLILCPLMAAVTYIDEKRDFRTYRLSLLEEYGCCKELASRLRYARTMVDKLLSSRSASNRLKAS

Q: For `C[C@@H](Oc1cc(-n2cnc3cnc(CN4CCN(CC5CCN(C)CC5)CC4)cc32)sc1C(N)=O)c1ccccc1C(F)(F)F` [Example 85, 5-[6-({4-[(1-methylpiperidin-4-yl)methyl]piperazin-1-yl}methyl)-1H-imidazo[4,5-c]pyridin-1-yl]-3-{(1R)-1-[2-(trifluoromethyl)phenyl]ethoxy}thiophene-2-carboxamide], which IC50 is on record?
A: Its IC50 is 100 to 1000 nM.

Q: For `C[C@@H](Oc1cc(-n2cnc3cnc(CN4CCN(CC(=O)N(C)c5ccccc5)CC4)cc32)sc1C(N)=O)c1ccccc1C(F)(F)F` [Example 86, 5-{6-[(4-{2-[methyl(phenyl)amino]-2-oxoethyl}piperazin-1-yl)methyl]-1H-imidazo[4,5-c]pyridin-1-yl}-3-{(1R)-1-[2-(trifluoromethyl)phenyl]ethoxy}thiophene-2-carboxamide], which IC50 is on record?
A: Its IC50 is 10 to 100 nM.

Q: With `C[C@@H](Oc1cc(-n2cnc3cnc(CN4CCN(CC(=O)N(C)C)CC4)cc32)sc1C(N)=O)c1ccccc1C(F)(F)F` [Example 87, 5-[6-({4-[2-(dimethylamino)-2-oxoethyl]piperazin-1-yl}methyl)-1H-imidazo[4,5-c]pyridin-1-yl]-3-{(1R)-1-[2-(trifluoromethyl)phenyl]ethoxy}thiophene-2-carboxamide] as the compound, how does the IC50 read?
A: Its IC50 is 10 to 100 nM.

Q: `C[C@@H](Oc1cc(-n2cnc3cnc(CNCCN4CCN(C)CC4)cc32)sc1C(N)=O)c1ccccc1C(F)(F)F` [Example 88, 5-[6-({[2-(4-methylpiperazin-1-yl)ethyl]amino}methyl)-1H-imidazo[4,5-c]pyridin-1-yl]-3-{(1R)-1-[2-(trifluoromethyl)phenyl]ethoxy}thiophene-2-carboxamide] was tested. Which IC50 did it give?
A: The IC50 was 10 to 100 nM.

Q: Which IC50 does the source give for `C[C@@H](Oc1cc(-n2cnc3cnc(CN4CCC(N5CCN(C)CC5)CC4)cc32)sc1C(N)=O)c1ccccc1C(F)(F)F` [Example 89, 5-(6-{[4-(4-methylpiperazin-1-yl)piperidin-1-yl]methyl}-1H-imidazo[4,5-c]pyridin-1-yl)-3-{(1R)-1-[2-(trifluoromethyl)phenyl]ethoxy}thiophene-2-carboxamide] here?
A: Its IC50 is 10 to 100 nM.

Q: Which IC50 does the source give for `C[C@@H](Oc1cc(-n2cnc3cc(CNS(C)(=O)=O)ncc32)sc1C(N)=O)c1ccccc1C(F)(F)F` [Example 90, 5-(6-{[(methylsulfonyl)amino]methyl}-3H-imidazo[4,5-c]pyridin-3-yl)-3-{(1R)-1-[2-(trifluoromethyl)phenyl]ethoxy}thiophene-2-carboxamide] here?
A: Its IC50 is 10 to 100 nM.

Q: With `C[C@@H](Oc1cc(-n2cnc3cnc(CN4CCC(C(=O)N5CCN(C)CC5)CC4)cc32)sc1C(N)=O)c1ccccc1C(F)(F)F` [Example 91, 5-[6-({4-[(4-methylpiperazin-1-yl)carbonyl]piperidin-1-yl}methyl)-1H-imidazo[4,5-c]pyridin-1-yl]-3-{(1R)-1-[2-(trifluoromethyl)phenyl]ethoxy}thiophene-2-carboxamide] as the compound, how does the IC50 read?
A: Its IC50 is 10 to 100 nM.

Q: For `C[C@@H](Oc1cc(-n2cnc3cnc(CN4CCNCC4)cc32)sc1C(N)=O)c1ccccc1C(F)(F)F` [Example 92], which IC50 is on record?
A: Its IC50 is less than 10 nM.

Q: `CC1CCN(Cc2cc3c(cn2)ncn3-c2cc(O[C@H](C)c3ccccc3C(F)(F)F)c(C(N)=O)s2)CC1` [Example 93, 5-{6-[(4-methylpiperidin-1-yl)methyl]-1H-imidazo[4,5-c]pyridin-1-yl}-3-{(1R)-1-[2-(trifluoromethyl)phenyl]ethoxy}thiophene-2-carboxamide] was tested. Which IC50 did it give?
A: Its IC50 is 10 to 100 nM.

Q: How did the IC50 turn out when `C[C@@H](Oc1cc(-n2cnc3cnc(CN4CCC(O)C4)cc32)sc1C(N)=O)c1ccccc1C(F)(F)F` (stereo partly drawn) [Example 94, 5-{6-[(3-hydroxypyrrolidin-1-yl)methyl]-1H-imidazo[4,5-c]pyridin-1-yl}-3-{(1R)-1-[2-(trifluoromethyl)phenyl]ethoxy}thiophene-2-carboxamide] was run?
A: The IC50 was less than 10 nM.

Q: Which IC50 does the source give for `C[C@@H](Oc1cc(-n2cnc3cnc(CN4C[C@@H]5C[C@H]4CN5)cc32)sc1C(N)=O)c1ccccc1C(F)(F)F` [Example 95, 5-{6-[(1S,4S)-2,5-diazabicyclo[2.2.1]hept-2-ylmethyl]-1H-imidazo[4,5-c]pyridin-1-yl}-3-{(1R)-1-[2-(trifluoromethyl)phenyl]ethoxy}thiophene-2-carboxamide] here?
A: The IC50 was less than 10 nM.

Q: How did the IC50 turn out when `C[C@@H](Oc1cc(-n2cnc3cnc(CN4CC(O)C4)cc32)sc1C(N)=O)c1ccccc1C(F)(F)F` [Example 96, 5-{6-[(3-hydroxyazetidin-1-yl)methyl]-1H-imidazo[4,5-c]pyridin-1-yl}-3-{(1R)-1-[2-(trifluoromethyl)phenyl]ethoxy}thiophene-2-carboxamide] was run?
A: Its IC50 is less than 10 nM.

Q: With `CC(Oc1cc(-n2cnc3cnc(CN4CCN(C)CC4)cc32)sc1C(N)=O)c1ccc(F)cc1C(F)(F)F` (centres unmarked) [Example 97, 3-{1-[4-fluoro-2-(trifluoromethyl)phenyl]ethoxy}-5-{6-[(4-methylpiperazin-1-yl)methyl]-1H-imidazo[4,5-c]pyridin-1-yl}thiophene-2-carboxamide] as the compound, how does the IC50 read?
A: Its IC50 is less than 10 nM.

Q: `C[C@@H](Oc1cc(-n2cnc3cnc(CN4CCN(C)CC4)cc32)sc1C(N)=O)c1ccccc1Br` [Example 98, 3-[(1R)-1-(2-bromophenyl)ethoxy]-5-{6-[(4-methylpiperazin-1-yl)methyl]-1H-imidazo[4,5-c]pyridin-1-yl}thiophene-2-carboxamide] was tested. Which IC50 did it give?
A: Its IC50 is less than 10 nM.

Q: With `CC(Oc1cc(-n2cnc3cnc(CN4CCN(C)CC4)cc32)sc1C(N)=O)c1ccccc1OC(F)F` (centres unmarked) [Example 99, 3-{1-[2-(difluoromethoxy)phenyl]ethoxy}-5-{6-[(4-methylpiperazin-1-yl)methyl]-1H-imidazo[4,5-c]pyridin-1-yl}thiophene-2-carboxamide] as the compound, how does the IC50 read?
A: Its IC50 is less than 10 nM.

Q: `C[C@@H](Oc1cc(-n2cnc3cnc(CN4CCN(C)CC4)cc32)sc1C(N)=O)c1ccccc1Cl` [Example 100, 3-[(1R)-1-(2-chlorophenyl)ethoxy]-5-{6-[(4-methylpiperazin-1-yl)methyl]-1H-imidazo[4,5-c]pyridin-1-yl}thiophene-2-carboxamide] was tested. Which IC50 did it give?
A: The IC50 was less than 10 nM.

Q: With `C[C@@H](Oc1cc(-n2cnc3cnc(CN4CCN(C)CC4)cc32)sc1C(N)=O)c1ccccc1F` [Example 101, 3-[(1R)-1-(2-fluorophenyl)ethoxy]-5-{6-[(4-methylpiperazin-1-yl)methyl]-1H-imidazo[4,5-c]pyridin-1-yl}thiophene-2-carboxamide] as the compound, how does the IC50 read?
A: The IC50 was less than 10 nM.

Q: Which IC50 does the source give for `CCC(Oc1cc(-n2cnc3cnc(CN4CCN(C)CC4)cc32)sc1C(N)=O)c1ccccc1Cl` (centres unmarked) [Example 102, 3-{[1-(2-chlorophenyl)propyl]oxy}-5-{6-[(4-methylpiperazin-1-yl)methyl]-1H-imidazo[4,5-c]pyridin-1-yl}thiophene-2-carboxamide] here?
A: The IC50 was 10 to 100 nM.

Q: For `CC(Oc1cc(-n2cnc3cnc(CN4CCN(C)CC4)cc32)sc1C(N)=O)c1ccccc1F` (centres unmarked) [Example 103, 3-[1-(2-fluorophenyl)ethoxy]-5-{6-[(4-methylpiperazin-1-yl)methyl]-1H-imidazo[4,5-c]pyridin-1-yl}thiophene-2-carboxamide], which IC50 is on record?
A: Its IC50 is 10 to 100 nM.

Q: Which IC50 does the source give for `C[C@@H](Oc1cc(-n2cnc3cnc(CNCCO)cc32)sc1C(N)=O)c1ccccc1C(F)(F)F` [Example 104, 5-(6-{[(2-hydroxyethyl)amino]methyl}-1H-imidazo[4,5-c]pyridin-1-yl)-3-{(1R)-1-[2-(trifluoromethyl)phenyl]ethoxy}thiophene-2-carboxamide] here?
A: The IC50 was 10 to 100 nM.

Q: Which IC50 does the source give for `C[C@@H](Oc1cc(-n2cnc3cnc(CNC4CCC4)cc32)sc1C(N)=O)c1ccccc1C(F)(F)F` [Example 105, 5-{6-[(cyclobutylamino)methyl]-1H-imidazo[4,5-c]pyridin-1-yl}-3-{(1R)-1-[2-(trifluoromethyl)phenyl]ethoxy}thiophene-2-carboxamide] here?
A: The IC50 was 10 to 100 nM.

Q: With `C[C@@H](Oc1cc(-n2cnc3cnc(CN4CCN(C5CCCCC5)CC4)cc32)sc1C(N)=O)c1ccccc1C(F)(F)F` [Example 106, 5-{6-[(4-cyclohexylpiperazin-1-yl)methyl]-1H-imidazo[4,5-c]pyridin-1-yl}-3-{(1R)-1-[2-(trifluoromethyl)phenyl]ethoxy}thiophene-2-carboxamide] as the compound, how does the IC50 read?
A: The IC50 was 10 to 100 nM.

Q: `CCN1CCN(Cc2cc3c(cn2)ncn3-c2cc(O[C@H](C)c3ccccc3C(F)(F)F)c(C(N)=O)s2)CC1` [Example 107, 5-{6-[(4-ethylpiperazin-1-yl)methyl]-1H-imidazo[4,5-c]pyridin-1-yl}-3-{(1R)-1-[2-(trifluoromethyl)phenyl]ethoxy}thiophene-2-carboxamide] was tested. Which IC50 did it give?
A: The IC50 was less than 10 nM.

Q: How did the IC50 turn out when `C[C@@H](Oc1cc(-n2cnc3cnc(CN4CCN(CCCO)CC4)cc32)sc1C(N)=O)c1ccccc1C(F)(F)F` [Example 108, 5-(6-{[4-(3-hydroxypropyl)piperazin-1-yl]methyl}-1H-imidazo[4,5-c]pyridin-1-yl)-3-{(1R)-1-[2-(trifluoromethyl)phenyl]ethoxy}thiophene-2-carboxamide] was run?
A: The IC50 was less than 10 nM.

Q: With `CCOc1ccc(OCC)c(COc2cc(-n3cnc4cnc(CO)cc43)sc2C(N)=O)c1` [Example 109, 3-[(2,5-diethoxybenzyl)oxy]-5-[6-(hydroxymethyl)-1H-imidazo[4,5-c]pyridin-1-yl]thiophene-2-carboxamide] as the compound, how does the IC50 read?
A: Its IC50 is 1000 to 10000 nM.

Q: `Cc1ccccc1C(C)Oc1cc(-n2cnc3cnc(CO)cc32)sc1C(N)=O` (centres unmarked) [Example 110, 5-[6-(hydroxymethyl)-1H-imidazo[4,5-c]pyridin-1-yl]-3-[1-(2-methylphenyl)ethoxy]thiophene-2-carboxamide] was tested. Which IC50 did it give?
A: Its IC50 is less than 10 nM.

Q: Which IC50 does the source give for `CC(Oc1cc(-n2cnc3cc(CNC4CCC4)ncc32)sc1C(N)=O)c1ccccc1C(F)(F)F` (centres unmarked) [Example 111, 5-{6-[(cyclobutylamino)methyl]-3H-imidazo[4,5-c]pyridin-3-yl}-3-{-1-[2-(trifluoromethyl)phenyl]ethoxy}thiophene-2-carboxamide] here?
A: The IC50 was 100 to 1000 nM.

Q: Which IC50 does the source give for `CCNCc1cc2c(cn1)ncn2-c1cc(O[C@H](C)c2ccccc2C(F)(F)F)c(C(N)=O)s1` [Example 112, 5-{6-[(ethylamino)methyl]-1H-imidazo[4,5-c]pyridin-1-yl}-3-{(1R)-1-[2-(trifluoromethyl)phenyl]ethoxy}thiophene-2-carboxamide] here?
A: Its IC50 is 10 to 100 nM.

Q: How did the IC50 turn out when `CCCNCc1cc2c(cn1)ncn2-c1cc(O[C@H](C)c2ccccc2C(F)(F)F)c(C(N)=O)s1` [Example 113] was run?
A: The IC50 was 10 to 100 nM.
